Assay results: paper PMC12624743 (ACS Infectious Diseases, 2025)
pEC50, pIC50: −log10 of the molar value.

Experiments:
[1] = biological target: T1, N. gonorrhoeae gyrase GyrA^D90N (Neisseria gonorrhoeae, UniProt P48371, D90N); experiment: Gyrase-catalyzed DNA supercoiling assay, GyrA^D90N; type: biochemical; details: read-out: IC50, inhibition of DNA supercoiling
T1 construct: His; made in house
Protocol: (§1) All proteins were His-tagged. N. gonorrhoeae WT gyrase (GyrA, GyrB) and topoisomerase IV (ParC, ParE) subunits as well as mutant GyrA^D90N, GyrA^A92T, GyrA^S91F, and GyrA^S91F/D95G gyrase and ParC^D86N and ParC^S88P topoisomerase IV were prepared as described previously. , N. gonorrhoeae mutant GyrA^D95G gyrase and mutant ParC^S87N and ParC^E91G topoisomerase IV were generated using a QuickChange II XL site-directed mutagenesis kit (Agilent Technologies) with custom primers for the desired mutations. […] The identities of all constructs were confirmed by DNA sequencing, and all enzymes were stored at −80 °C. In all assays, N. gonorrhoeae gyrase or topoisomerase IV was used as a 1:1 GyrA:GyrB or ParC:ParE mixture, respectively, and the stated enzyme concentration reflects that of the holoenzyme (A2B2).
(§2) Samples were mixed with 2 μL of loading dye [60% sucrose, 10 mM Tris–HCl (pH 7.9), 0.5% bromophenol blue, and 0.5% xylene cyanol FF] and incubated at 45 °C for 2 min before being subjected to electrophoresis on 1% agarose gels in 100 mM Tris-borate (pH 8.3) and 2 mM EDTA. […] DNA bands were visualized with medium-range ultraviolet light and quantified using an Alpha Innotech digital imaging system (Protein Simple). DNA supercoiling was monitored by the conversion of relaxed to supercoiled plasmid.

[2] = biological target: T2, N. gonorrhoeae gyrase GyrA^S91F (Neisseria gonorrhoeae, UniProt P48371, S91F); experiment: Gyrase-catalyzed DNA supercoiling assay, GyrA^S91F; type: biochemical
T2 construct: His; made in house
T2 sequence (P48371 whole entry S91F): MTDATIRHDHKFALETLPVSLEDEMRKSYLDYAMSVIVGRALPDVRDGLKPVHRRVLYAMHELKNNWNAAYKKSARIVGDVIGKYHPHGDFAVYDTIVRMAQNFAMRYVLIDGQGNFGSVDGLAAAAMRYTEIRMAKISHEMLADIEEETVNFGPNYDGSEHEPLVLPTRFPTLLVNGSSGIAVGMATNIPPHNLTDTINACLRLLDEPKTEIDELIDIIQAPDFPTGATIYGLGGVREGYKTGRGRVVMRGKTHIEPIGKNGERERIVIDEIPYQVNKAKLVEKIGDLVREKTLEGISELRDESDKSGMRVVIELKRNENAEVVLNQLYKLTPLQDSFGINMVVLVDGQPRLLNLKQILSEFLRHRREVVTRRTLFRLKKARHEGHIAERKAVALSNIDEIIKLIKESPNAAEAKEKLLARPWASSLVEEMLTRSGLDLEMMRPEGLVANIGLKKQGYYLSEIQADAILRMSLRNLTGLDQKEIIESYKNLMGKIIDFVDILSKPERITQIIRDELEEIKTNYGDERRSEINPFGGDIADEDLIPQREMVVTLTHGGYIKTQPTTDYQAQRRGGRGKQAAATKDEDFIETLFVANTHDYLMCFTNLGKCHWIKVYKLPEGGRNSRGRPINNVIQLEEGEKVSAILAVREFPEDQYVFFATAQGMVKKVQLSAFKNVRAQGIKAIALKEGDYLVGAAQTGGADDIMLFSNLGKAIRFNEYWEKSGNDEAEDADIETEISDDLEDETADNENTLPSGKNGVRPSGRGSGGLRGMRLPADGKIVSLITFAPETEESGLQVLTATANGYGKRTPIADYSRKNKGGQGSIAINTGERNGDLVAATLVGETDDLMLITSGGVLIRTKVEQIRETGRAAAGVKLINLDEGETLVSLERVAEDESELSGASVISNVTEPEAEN
T2 sequence (P22118 whole entry partner): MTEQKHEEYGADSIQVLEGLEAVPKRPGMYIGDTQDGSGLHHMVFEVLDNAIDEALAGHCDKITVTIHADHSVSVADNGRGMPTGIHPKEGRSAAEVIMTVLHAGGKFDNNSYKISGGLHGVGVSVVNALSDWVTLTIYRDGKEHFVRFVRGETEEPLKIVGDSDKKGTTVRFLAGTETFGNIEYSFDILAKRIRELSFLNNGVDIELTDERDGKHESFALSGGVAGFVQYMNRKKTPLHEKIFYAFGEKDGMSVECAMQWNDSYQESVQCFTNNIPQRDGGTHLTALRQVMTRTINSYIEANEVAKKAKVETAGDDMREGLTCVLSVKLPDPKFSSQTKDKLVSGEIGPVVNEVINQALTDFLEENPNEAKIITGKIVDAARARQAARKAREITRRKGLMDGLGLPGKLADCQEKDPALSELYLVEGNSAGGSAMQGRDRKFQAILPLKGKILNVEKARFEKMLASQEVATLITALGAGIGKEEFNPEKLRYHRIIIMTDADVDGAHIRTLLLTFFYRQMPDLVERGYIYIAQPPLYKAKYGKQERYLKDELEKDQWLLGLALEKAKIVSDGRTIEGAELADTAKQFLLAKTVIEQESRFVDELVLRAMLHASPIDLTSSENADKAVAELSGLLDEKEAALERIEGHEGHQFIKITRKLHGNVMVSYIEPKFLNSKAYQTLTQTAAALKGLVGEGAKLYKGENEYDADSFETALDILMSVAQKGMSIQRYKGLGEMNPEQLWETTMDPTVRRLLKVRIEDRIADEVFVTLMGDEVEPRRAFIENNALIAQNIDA
Protocol: as §1, §2

[3] = biological target: T3, N. gonorrhoeae gyrase GyrA^D95G (Neisseria gonorrhoeae, UniProt P48371, D95G); experiment: DNA cleavage assay, GyrA^D95G gyrase; type: biochemical
T3 construct: His; made in house
T3 sequence (P48371 whole entry D95G): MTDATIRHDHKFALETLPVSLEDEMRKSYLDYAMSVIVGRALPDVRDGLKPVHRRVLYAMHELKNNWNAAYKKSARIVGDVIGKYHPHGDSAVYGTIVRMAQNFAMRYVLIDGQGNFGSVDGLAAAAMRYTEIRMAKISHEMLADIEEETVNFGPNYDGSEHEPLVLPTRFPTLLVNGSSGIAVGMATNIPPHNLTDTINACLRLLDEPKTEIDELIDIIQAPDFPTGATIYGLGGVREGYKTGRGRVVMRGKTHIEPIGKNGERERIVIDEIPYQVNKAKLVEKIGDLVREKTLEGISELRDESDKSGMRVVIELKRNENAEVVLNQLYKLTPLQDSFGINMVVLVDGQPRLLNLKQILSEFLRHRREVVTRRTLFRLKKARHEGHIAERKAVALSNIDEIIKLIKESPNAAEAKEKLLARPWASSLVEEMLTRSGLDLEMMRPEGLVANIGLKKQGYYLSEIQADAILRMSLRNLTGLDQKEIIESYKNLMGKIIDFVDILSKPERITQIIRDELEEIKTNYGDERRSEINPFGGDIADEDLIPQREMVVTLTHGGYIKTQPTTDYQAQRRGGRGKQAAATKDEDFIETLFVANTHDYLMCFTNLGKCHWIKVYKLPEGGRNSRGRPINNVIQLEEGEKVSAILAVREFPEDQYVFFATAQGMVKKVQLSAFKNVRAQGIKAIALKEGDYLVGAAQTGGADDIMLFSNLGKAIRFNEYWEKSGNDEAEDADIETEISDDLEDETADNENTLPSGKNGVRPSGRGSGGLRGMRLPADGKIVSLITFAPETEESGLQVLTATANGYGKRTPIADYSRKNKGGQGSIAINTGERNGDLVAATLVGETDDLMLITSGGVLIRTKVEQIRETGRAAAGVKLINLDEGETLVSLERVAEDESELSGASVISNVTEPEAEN
T3 sequence (P22118 whole entry partner): as the sequence (P22118 whole entry partner) above
Protocol: Some experiments replaced MgCl2 with an equivalent concentration of CaCl2 (10 mM), or 1.5 mM ATP was added to assay mixtures.
Reactions were incubated at 37 °C for 30 min with WT and mutant (GyrA^D90N, GyrA^A92T, GyrA^S91F, GyrA^D95G, or GyrA^S91F/D95G) N. gonorrhoeae gyrase, 10 min with WT N. gonorrhoeae topoisomerase IV, and 20 min with mutant (ParC^D86N, ParC^S88P, ParC^S87N, or ParC^E91G) N. gonorrhoeae topoisomerase IV. Enzyme-DNA cleavage complexes were trapped by adding 2 μL of 5% SDS followed by 2 μL of 250 mM EDTA (pH 8.0). Proteinase K was added (2 μL of a 0.8 mg/mL solution), and reaction mixtures were incubated at 45 °C for 30 min to digest the enzyme. Samples were mixed with 2 μL of loading buffer and heated at 45 °C for 2 min prior to electrophoresis in 1% agarose gels in 40 mM Tris-acetate (pH 8.3), and 2 mM EDTA containing 0.5 μg/mL ethidium bromide. DNA bands were visualized by midrange ultraviolet light and quantified using an Alpha Innotech digital imaging system (Protein Simple). Single-stranded DNA cleavage was monitored by the conversion of negatively supercoiled to nicked plasmid molecules.

[4] = tested on: WT N. gonorrhoeae topoisomerase IV; experiment: Topoisomerase IV-catalyzed DNA decatenation assay, WT; type: biochemical, Neisseria gonorrhoeae; details: decatenation IC50 vs supercoiling IC50, WT enzymes
Protocol: All proteins were His-tagged. N. gonorrhoeae WT gyrase (GyrA, GyrB) and topoisomerase IV (ParC, ParE) subunits as well as mutant GyrA^D90N, GyrA^A92T, GyrA^S91F, and GyrA^S91F/D95G gyrase and ParC^D86N and ParC^S88P topoisomerase IV were prepared as described previously. , N. gonorrhoeae mutant GyrA^D95G gyrase and mutant ParC^S87N and ParC^E91G topoisomerase IV were generated using a QuickChange II XL site-directed mutagenesis kit (Agilent Technologies) with custom primers for the desired mutations. Mutant N. gonorrhoeae GyrA and ParC subunits were expressed and purified as described by Ashley et al. with the following modifications to optimize protein expression and lysis: (1) GyrA^D95G was expressed for 2.5 h and ParC^S87N and ParC^E91G were expressed for 3 h before harvesting, and (2) cells were lysed by sonication using a digital sonifier (Branson). The identities of all constructs were confirmed by DNA sequencing, and all enzymes were stored at −80 °C. In all assays, N. gonorrhoeae gyrase or topoisomerase IV was used as a 1:1 GyrA:GyrB or ParC:ParE mixture, respectively, and the stated enzyme concentration reflects that of the holoenzyme (A2B2). […]

O=c1ccc2ncc(=O)n3c2n1C[C@H]3CN1CCC(NCc2cc3c(cn2)OCCC3)CC1 [gepotidacin]
pIC50 [1]: < 4.00 | pIC50 ([2]; GyrA S91F gyrase, read-out: IC50, inhibition of DNA supercoiling): 5.12 | fold increase of supercoiling IC50 vs WT gyrase ([2]; GyrA S91F vs WT): ~1.5 fold | Adj-Max Cleavage, single-stranded DNA breaks [3]: 17.9% | pEC50 ([3]; GyrA D95G gyrase, read-out: CC50, single-stranded DNA cleavage): 5.89 | single-stranded DNA cleavage compared with WT gyrase ([3]; GyrA D95G vs WT): nearly indistinguishable | fold greater potency (IC50) against topoisomerase IV over gyrase [4]: ~2.8 fold
